Counter-ions that a name gives are not always drawn.

Sequence of RIPK1 (recombinant GST-RIPK1 kinase domain, residues 1-327) (Q13546 1-327): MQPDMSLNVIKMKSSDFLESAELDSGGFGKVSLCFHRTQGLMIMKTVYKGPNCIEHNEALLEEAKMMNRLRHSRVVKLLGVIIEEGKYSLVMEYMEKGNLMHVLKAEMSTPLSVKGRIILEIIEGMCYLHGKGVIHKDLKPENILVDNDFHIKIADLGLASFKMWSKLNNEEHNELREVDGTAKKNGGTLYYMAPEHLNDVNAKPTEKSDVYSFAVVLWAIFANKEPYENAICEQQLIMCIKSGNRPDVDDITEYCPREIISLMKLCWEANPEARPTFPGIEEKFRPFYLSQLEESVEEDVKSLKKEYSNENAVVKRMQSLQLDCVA

The test has as its target RIPK1 (recombinant GST-RIPK1 kinase domain, residues 1-327) (Homo sapiens (Human), UniProt Q13546). Briefly: RIPK1-ADP-Glo Enzymatic Assay. Particulars: ADP-Glo; 25 nM GST-RIPK1, 300 μM ATP; assay lower limit ~25 nM; read-out: RIPK1 V0 Ec50. The class given is biochemical. The method in brief: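 Compounds titrated 10-pt 1:3 from 100000 nM top (1% DMSO); 30 min preinc w/ 25 nM Sf21-expressed enzyme, RT; start w/ ATP (300 μM final) + dephos-MBP (3 μM); 150 min; ADP-Glo lumi; 4-param fit → EC50.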
The EC50 is the concentration that produces a half-maximal response. As for `O=C(C1CCCC1)N1CCC2(CC1)O[C@@H]1CC[C@@H](c3cc(F)cc(F)c3)N1C2=O` [Example 5.32, (5′S,7a′R)-1-(cyclopentane-carbonyl)-5′-(3,5-difluoro-phenyl)tetrahydro-3′H-spiro[piperidine-4,2′-pyrrolo[2,1-b]oxazol]-3′-one], the concentration giving a half-maximal response (EC50) was 409 nM.

As to `O=C1N2[C@@H](CC[C@H]2c2ccccc2F)OC12CCN(c1ncc(Br)c3ncnn13)CC2` [Example 4.240, (5′S,7a′R)-1-(8-bromo [1,2,4]triazolo[1,5-c]pyrimidin-5-yl)-5′-(2-fluorophenyl)tetrahydro-3′H-spiro[piperidine-4,2′-pyrrolo[2,1-b] [1,3]oxazol]-3′-one], the EC50 is < 25 nM.

`O=C1CCc2nc(N3CCC4(CC3)O[C@@H]3CC[C@@H](c5ccccc5)N3C4=O)ccc21` [Example 4.196, (5′S,7a′R)-1-(5-oxo-6,7-dihydro-5H-cyclopenta[b]pyridin-2-yl)-5′-phenyltetrahydro-3′H-spiro[piperidine-4,2′-pyrrolo[2,1-b] [1,3]oxazol]-3′-one]: the EC50 amounted to 31.7 nM.

For the compound `CN(C)c1cccc(C(=O)N2CCC3(CC2)O[C@@H]2CC[C@@H](c4cccc(F)c4)N2C3=O)c1` [Example 6.124, (5′S,7a′R)-1-[3-(dimethylamino)-benzene-1-carbonyl]-5′-(3-fluorophenyl) tetrahydro-3′H-spiro [piperidine-4,2′-pyrrolo[2,1-b][1,3]-oxazol]-3′-one], the half-maximal effective concentration (EC50) was < 25 nM.

For the compound `O=C1N2[C@@H](CC[C@H]2c2ccccc2)OC12CCN(c1ncnc3c1CCO3)CC2` [Example 4.217, (5′S,7a′R)-1-(5,6-dihydrofuro[2,3-d]pyrimidin-4-yl)-5′-phenyltetrahydro-3′H-spiro[piperidine-4,2′-pyrrolo[2,1-b] [1,3]oxazol]-3′-one], the 50% effective concentration (EC50) was 25.8 nM.

`O=C(c1ccccc1F)N1CCC2(CC1)O[C@@H]1CC[C@@H](c3ccccc3)N1C2=O` [Example 1.10, (5′S,7a′R)-1-(2-fluorobenzene-1-carbonyl)-5′-phenyltetrahydro-3′H-spiro[piperidine-4,2′-pyrrolo[2,1-b] [1,3]oxazol]-3′-one]: the EC50 is < 25 nM.

Turning to `CC1CN(c2ncnc3ccnn23)CCC12O[C@@H]1CC[C@@H](c3cc(F)cc(F)c3)N1C2=O` (stereo partly drawn) [Example 4.267, (5′S,7a′R)-5′-(3,5-difluorophenyl)-3-methyl-1-(pyrazolo[1,5-a] [1,3,5]triazin-4-yl)tetrahydro-3′H-spiro[piperidine-4,2′-pyrrolo[2,1-b] [1,3]oxazol]-3′-one], the EC50 is < 25 nM.

`O=C1N2[C@@H](CC[C@H]2c2ccccc2)OC12CCN(c1ncnn3ccnc13)CC2` [Example 4.227, (5′S,7a′R)-1-(imidazo[2,1-f] [1,2,4]triazin-4-yl)-5′-phenyltetrahydro-3′H-spiro[piperidine-4,2′-pyrrolo[2,1-b] [1,3]oxazol]-3′-one]: the 50% effective concentration (EC50) was 27.3 nM.

On to `COc1cc(N2CCC3(CC2)O[C@@H]2CC[C@@H](c4cc(F)cc(F)c4)N2C3=O)ncc1C#N` [Example 4.43, 6-[(5′S,7a′R)-5′-(3,5-difluorophenyl)-3′-oxotetrahydro-1H,3′H-spiro[piperidine-4,2′-pyrrolo[2,1-b] [1,3]oxazol]-1-yl]-4-methoxypyridine-3-carbonitrile], for which the EC50 was < 25 nM.

For the compound `CC1CC2(CCN1c1ccnc3c(F)cnn13)O[C@@H]1CC[C@@H](c3ccccc3)N1C2=O` (stereo partly drawn) [Example 4.224, (4R,5′S,7a′R)-1-(3-fluoropyrazolo[1,5-a]pyrimidin-7-yl)-2-methyl-5′-phenyltetrahydro-3′H-spiro[piperidine-4,2′-pyrrolo[2,1-b] [1,3]oxazol]-3′-one], the EC50 was < 25 nM.

On to `O=C1N2[C@@H](CC[C@H]2c2ccccc2)OC12CCN(c1ncnn3c(F)cnc13)CC2` [Example 4.226, (5′S,7a′R)-1-(7-fluoroimidazo[2,1-f] [1,2,4]triazin-4-yl)-5′-phenyltetrahydro-3′H-spiro[piperidine-4,2′-pyrrolo[2,1-b] [1,3]oxazol]-3′-one], for which the concentration giving a half-maximal response (EC50) is < 25 nM.

For `O=C1N2C(=NC13CCN(c1cc(F)ccn1)CC3)CC[C@H]2c1cc(F)cc(F)c1` [Example 11.1], the concentration for a half-maximal effect (EC50) turned out to be 885 nM.

For `O=C1N2[C@@H](CC[C@H]2c2cc(F)cc(F)c2)OC12CCN(c1cc(-c3ccccc3)ncn1)CC2` [Example 4.13, (5′S,7a′R)-5′-(3,5-difluorophenyl)-1-(6-phenylpyrimidin-4-yl)tetrahydro-3′H-spiro[piperidine-4,2′-pyrrolo[2,1-b] [1,3]oxazol]-3′-one], the concentration giving a half-maximal response (EC50) was < 25 nM.

On to `COc1ccnc(N2CCC3(CC2)O[C@@H]2CC[C@@H](c4ccccc4)N2C3=O)c1` [Example 11.30, (5′S,7a′R)-1-(4-methoxypyridin-2-yl)-5′-phenyltetrahydro-3′H-spiro[piperidine-4,2′-pyrrolo[2,1-b][1,3]oxazol]-3′-one], for which the EC50 is 191 nM.

For `O=C1N2[C@H](OC13CCN(c1ccnc4c(F)cnn14)CC3)[C@@H](F)C[C@H]2c1ccccc1` [Example 9.1, (5′S,7′S,7a′R)-7′-Fluoro-1-(3-fluoropyrazolo[1,5-a]pyrimidin-7-yl)-5′-phenyltetrahydro-3′H-spiro[piperidine-4,2′-pyrrolo[2,1-b]oxazol]-3′-one], the EC50 is < 25 nM.

In the case of `O=C(c1cccc(F)c1F)N1CCC2(CC1)O[C@@H]1CC[C@@H](c3ccccc3)N1C2=O` [Example 5.9, (5′S,7a′R)-1-(2,3-difluorobenzene-1-car-bonyl)-5′-phenyltetra-hydro-3′H-spiro[piperi-dine-4,2′-pyrrolo[2,1-b] [1,3]oxazol]-3′-one], the EC50 is < 25 nM.

In the case of `COCOc1cc(-c2ccc(N3CCC4(CC3)O[C@@H]3CC[C@@H](c5ccccc5)N3C4=O)nc2)on1` [Example 4.164, (5′S,7a′R)-1-{5-[3-(methoxymethoxy)-1,2-oxazol-5-yl]pyridin-2-yl}-5′-phenyltetrahydro-3′H-spiro[piperidine-4,2′-pyrrolo[2,1-b] [1,3]oxazol]-3′-one], the EC50 was 28.8 nM.

As for `CCOc1ccc(N2CCC3(CC2)O[C@@H]2CC[C@@H](c4cc(F)cc(F)c4)N2C3=O)n2nccc12` [Example 19.2, (5′S,7a′R)-5′-(3,5-difluorophenyl)-1-(4-ethoxypyrazolo[1,5-a]pyridin-7-yl)tetrahydro-3′H-spiro[piperidine-4,2′-pyrrolo[2,1-b]oxazol]-3′-one, TFA salt], the EC50 is < 25 nM.

In the case of `Cc1cnn(-c2cc(N3CCC4(CC3)O[C@@H]3CC[C@@H](c5ccccc5)N3C4=O)ncn2)c1` [Example 4.26, (5′S,7a′R)-1-[6-(4-methyl-1H-pyrazol-1-yl)pyrimidin-4-yl]-5′-phenyltetrahydro-3′H-spiro[piperidine-4,2′-pyrrolo[2,1-b] [1,3]oxazol]-3′-one], the EC50 turned out to be 24.6 nM.

Turning to `N#Cc1cncc([C@@H]2CC[C@H]3OC4(CCN(c5ccnc6c(F)cnn56)CC4)C(=O)N32)c1` [Example 4.127, 5-[(5′S,7a′R)-1-(3-fluoropyrazolo[1,5-a]pyrimidin-7-yl)-3′-oxotetrahydro-3′H-spiro[piperidine-4,2′-pyrrolo[2,1-b] [1,3]oxazol]-5′-yl]pyridine-3-carbonitrile], the EC50 was < 25 nM.

Consider `C#Cc1cccc(C(=O)N2CCC3(CC2)O[C@@H]2CC[C@@H](c4cc(F)cc(F)c4)N2C3=O)c1` [Example 5.25, (5′S,7a′R)-5′-(3,5-difluoro-phenyl)-1-(3-ethynyl-benzoyl)tetrahydro-3′H-spiro[piperidine-4,2′-pyrrolo[2,1-b]oxazol]-3′-one], for which the EC50 is < 25 nM.

Consider `O=C(c1ccn(C(F)F)n1)N1CCC2(CC1)O[C@@H]1CC[C@@H](c3cc(F)cc(F)c3)N1C2=O` [Example 5.41], for which the 50% effective concentration (EC50) turned out to be 129 nM.

In the case of `COc1cc(N2CCC3(CC2)O[C@@H]2CC[C@@H](c4ccccc4)N2C3=O)ncn1` [Example 4.39, (5′S,7a′R)-1-(6-methoxypyrimidin-4-yl)-5′-phenyltetrahydro-3′H-spiro[piperidine-4,2′-pyrrolo[2,1-b] [1,3]oxazol]-3′-one], the EC50 amounted to 22.3 nM.

On to `O=C(c1cnc(Cl)cn1)N1CCC2(CC1)O[C@@H]1CC[C@@H](c3cc(F)cc(F)c3)N1C2=O` [Example 6.86, (5′S,7a′R)-1-(5-chloro-pyrazine-2-carbonyl)-5′-(3,5-difluorophen-yl)tetrahydro-3′H-spiro[piperidine-4,2′-pyrrolo[2,1-b][1,3]-oxazol]-3′-one], for which the EC50 was found to be 86 nM.

Turning to `CCOc1cnc(N2CCC3(CC2)O[C@@H]2CC[C@@H](c4ccccc4)N2C3=O)n2ncnc12` [Example 19.7, (5′S,7a′R)-1-(8-ethoxy[1,2,4]triazolo [1,5-c]pyrimidin-5-yl)-5′-phenyltetrahydro-3′H-spiro[piperidine-4,2′-pyrrolo[2,1-b][l,3]oxazol]-3′-one], the EC50 is 25 nM.

`Cc1nc(N2CCC3(CC2)O[C@@H]2CC[C@@H](c4ccccc4)N2C3=O)ncc1-c1cnoc1` [Example 21.9, (5′S,7a′R)-1-[4-methyl-5-(1,2-oxazol-4-yl)pyrimidin-2-yl]-5′-phenyltetrahydro-3′H-spiro[piperidine-4,2′-pyrrolo[2,1-b][1,3]oxazol]-3′-one]: the EC50 was 37.8 nM.

For the compound `N#CC1(c2cccc(C(=O)N3CCC4(CC3)O[C@@H]3CC[C@@H](c5cc(F)cc(F)c5)N3C4=O)c2)CC1` [Example 6.71, 1-{3-[(5′S,7a′R)-5′-(3,5-difluorophenyl)-3′-oxotetrahydro-1H,3′H-spiro[piperi-dine-4,2′-pyrrolo-[2,1-b][1,3]oxazole]-1-carbonyl]phenyl} cyclopropane-1-car-bonitrile], the half-maximal effective concentration (EC50) was < 25 nM.

The record behind these values is patent publication US12180226B2, “Spirotricycle RIPK1 inhibitors and methods of uses thereof” (Merck Sharp & Dohme LLC, priority 2021, dated 2024).
